From patent US10766884B2 (Pfizer Inc., priority 2018, dated 2020) come the findings set out here.

The target in one experiment is CDK4 (Homo sapiens (Human), UniProt P11802). In words: Phospho-Serine 795 Rb ELISA assay in JEKO-1 cells. Type of experiment: cell-based. To be noted: overnight treatment, phospho-Rb S795, read-out: CDK4 pRB S795 ELISA JEKO-1 cells IC50. (An ELISA detects its analyte on a solid surface through an enzyme-linked reagent.)
A further experiment deals with CDK6 (Homo sapiens (Human), UniProt Q00534). The experiment can be described thus: Phospho-Serine 795 Rb ELISA assay in MV4-11 cells. Type of experiment: cell-based. To be noted: overnight treatment, phospho-Rb S795, read-out: CDK6 pRB S795 ELISA MV4-11 cells IC50.
Sequence of CDK6 (Q00534 whole entry): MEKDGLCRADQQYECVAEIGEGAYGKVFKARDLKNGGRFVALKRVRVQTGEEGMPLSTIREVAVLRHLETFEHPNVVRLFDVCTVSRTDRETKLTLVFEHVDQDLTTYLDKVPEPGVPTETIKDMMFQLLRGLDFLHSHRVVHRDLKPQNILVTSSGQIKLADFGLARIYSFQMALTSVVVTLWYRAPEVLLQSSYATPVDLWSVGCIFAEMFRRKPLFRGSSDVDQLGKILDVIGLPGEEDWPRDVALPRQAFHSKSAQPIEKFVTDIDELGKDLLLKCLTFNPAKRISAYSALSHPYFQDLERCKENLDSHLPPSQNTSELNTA
Sequence of CDK6 (P30281 whole entry partner): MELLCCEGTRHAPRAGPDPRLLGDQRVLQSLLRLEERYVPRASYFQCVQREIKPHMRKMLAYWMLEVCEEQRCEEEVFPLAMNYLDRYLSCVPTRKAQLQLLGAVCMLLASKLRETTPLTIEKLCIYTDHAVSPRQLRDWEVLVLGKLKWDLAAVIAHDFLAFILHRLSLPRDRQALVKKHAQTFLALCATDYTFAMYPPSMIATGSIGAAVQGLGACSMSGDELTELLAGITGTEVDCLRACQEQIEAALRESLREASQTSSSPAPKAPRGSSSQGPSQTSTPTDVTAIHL
The next experiment concerns the target CDK4/Cyclin D1 (Homo sapiens (Human), UniProt P11802). In words: CDK4/Cyclin D1 mobility shift assay. It counts as biochemical. To be noted: activated CDK4/Cyclin D1, 3.5 mM ATP, Morrison fit; read-out: CDK4D1 Ki.
In the next experiment the target is CDK6/Cyclin D3 (Homo sapiens (Human), UniProt Q00534). In words: CDK6/Cyclin D3 mobility shift assay. It counts as biochemical. To be noted: activated CDK6/Cyclin D3, 3.5 mM ATP, Morrison fit; read-out: CDK6_D3 Ki.
Sequence of CDK6/Cyclin D3 (Q00534 whole entry): as the sequence (Q00534 whole entry) above
Sequence of CDK6/Cyclin D3 (P30281 whole entry partner): as the sequence (P30281 whole entry partner) above

The structures appear in SMILES notation.

Sequence of CDK4/Cyclin D1 (P11802 whole entry): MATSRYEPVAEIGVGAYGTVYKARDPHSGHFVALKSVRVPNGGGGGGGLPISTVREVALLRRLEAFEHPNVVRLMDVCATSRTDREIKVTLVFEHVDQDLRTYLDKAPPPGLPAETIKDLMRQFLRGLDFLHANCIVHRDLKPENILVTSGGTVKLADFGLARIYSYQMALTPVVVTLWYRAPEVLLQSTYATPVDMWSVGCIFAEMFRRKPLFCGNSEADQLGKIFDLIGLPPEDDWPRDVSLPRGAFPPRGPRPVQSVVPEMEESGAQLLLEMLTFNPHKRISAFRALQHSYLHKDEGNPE
Sequence of CDK4/Cyclin D1 (P24385 whole entry partner): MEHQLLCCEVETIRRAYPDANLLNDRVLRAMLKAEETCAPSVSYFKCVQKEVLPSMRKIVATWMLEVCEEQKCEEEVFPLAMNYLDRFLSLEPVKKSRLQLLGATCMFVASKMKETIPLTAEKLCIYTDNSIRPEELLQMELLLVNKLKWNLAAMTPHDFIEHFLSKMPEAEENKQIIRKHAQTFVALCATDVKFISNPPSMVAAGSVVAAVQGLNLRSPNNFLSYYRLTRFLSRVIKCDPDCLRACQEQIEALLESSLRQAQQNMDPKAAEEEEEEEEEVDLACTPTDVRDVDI
Sequence of CDK4 (P11802 2-303): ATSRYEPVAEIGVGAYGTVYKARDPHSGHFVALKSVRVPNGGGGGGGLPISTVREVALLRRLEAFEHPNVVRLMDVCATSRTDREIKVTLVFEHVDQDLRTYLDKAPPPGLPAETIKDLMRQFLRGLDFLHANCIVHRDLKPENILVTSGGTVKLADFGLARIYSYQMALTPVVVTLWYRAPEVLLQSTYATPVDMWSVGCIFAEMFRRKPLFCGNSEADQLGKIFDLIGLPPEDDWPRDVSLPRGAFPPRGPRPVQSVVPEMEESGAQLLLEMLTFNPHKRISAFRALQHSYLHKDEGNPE
Sequence of CDK4 (P24385 whole entry partner): as the sequence (P24385 whole entry partner) above

With `CC(C)n1c(C(C)(C)O)nc2c(F)cc(-c3nc(N[C@@H]4CCOC[C@H]4O)ncc3Cl)cc21` [Example A94, 1,5-anhydro-3-({5-chloro-4-[4-fluoro-2-(2-hydroxypropan-2-yl)-1-(propan-2-yl)-1H-benzimidazol-6-yl]pyrimidin-2-yl}amino)-2,3-dideoxy-D-threo-pentitol], the IC50 (commonly the concentration that inhibits the measured activity by half) on CDK4 turned out to be 38.5 nM; at CDK6, 145 nM. In addition, the Ki (commonly a dissociation constant, usually derived from enzyme kinetics or from competition with a known ligand) was determined as 0.6 nM at CDK4/Cyclin D1 and 13.9 nM at CDK6/Cyclin D3.
`CNC(=O)CN1CC[C@@H](Nc2cc(-c3ccc4ncn(C(C)(C)C)c4n3)c(Cl)cn2)[C@H](O)C1` [Example F33, 2-[(3R,4R)-4-{[4-(3-tert-butyl-3H-imidazo[4,5-b]pyridin-5-yl)-5-chloropyridin-2-yl]amino}-3-hydroxypiperidin-1-yl]-N-methylacetamide]: the IC50 at CDK4 was 24.6 nM; on CDK6, 113 nM. Moreover, the Ki at CDK4/Cyclin D1 stood at 0.2 nM; at CDK6/Cyclin D3, 5.2 nM.
Consider `Cc1nc2c(F)cc(-c3nc(N[C@@H]4CCN(S(C)(=O)=O)C[C@H]4O)ncc3Cl)cc2n1C(C)C` [Example A01, (3R,4R)-4-({5-chloro-4-[4-fluoro-2-methyl-1-(propan-2-yl)-1H-benzimidazol-6-yl]pyrimidin-2-yl}amino)-1-(methanesulfonyl)piperidin-3-ol], for which the concentration for half-maximal inhibition (IC50) was found to be 25.3 nM on CDK4 and 76.5 nM on CDK6. Besides, the Ki at CDK4/Cyclin D1 is 0.1 nM; at CDK6/Cyclin D3, 2.3 nM.
The corresponding values for `C[C@@H]1COCc2nc3c(F)cc(-c4nc(N[C@@H]5CCN(S(C)(=O)=O)C[C@H]5O)ncc4Cl)cc3n21` [Example A11] are 123 nM, 144 nM, 0.3 nM and 3 nM.
As to `CC(C)c1c2cc(-c3nc(N[C@@H]4CCN(S(C)(=O)=O)C[C@H]4O)ncc3Cl)ccc2nn1C` [Example A28], the IC50 at CDK4 worked out at 99.2 nM; at CDK6 it was 131 nM. For the same compound, the Ki at CDK4/Cyclin D1 amounted to 0.5 nM; at CDK6/Cyclin D3, 6.2 nM.
For the compound `CC(C)n1c(CNC2COC2)nc2c(F)cc(-c3nc(N[C@@H]4CCN(S(C)(=O)=O)C[C@H]4O)ncc3Cl)cc21` [Example H09, (3R,4R)-4-({5-chloro-4-[4-fluoro-2-{[(oxetan-3-yl)amino]methyl}-1-(propan-2-yl)-1H-benzimidazol-6-yl]pyrimidin-2-yl}amino)-1-(methanesulfonyl)piperidin-3-ol], the IC50 came to 205 nM on CDK4 and 230 nM at CDK6. Besides, the figures for the Ki at CDK4/Cyclin D1 and at CDK6/Cyclin D3 were 0.9 nM and 18.6 nM, respectively.
Turning to `COCC(C)n1c(C)nc2c(F)cc(-c3nc(N[C@@H]4CCN(S(C)(=O)=O)C[C@H]4O)ncc3Cl)cc21` (single isomer, unassigned) [Example A74], the IC50 worked out at 26.5 nM at CDK4 and 89.7 nM at CDK6. For the same compound, the figures for the inhibitory constant (Ki) on CDK4/Cyclin D1 and on CDK6/Cyclin D3 were 0.2 nM and 6.2 nM, respectively.
Regarding `CC(C(F)F)n1c(CO)nc2c(F)cc(-c3nc(N[C@@H]4CCN(S(C)(=O)=O)C[C@H]4O)ncc3Cl)cc21` (stereo partly drawn) [Example A92, (3R,4R)-4-({5-chloro-4-[1-(1,1-difluoropropan-2-yl)-4-fluoro-2-(hydroxymethyl)-1H-benzimidazol-6-yl]pyrimidin-2-yl}amino)-1-(methanesulfonyl)piperidin-3-ol], the IC50 at CDK4 came to 23.8 nM; on CDK6, 42.9 nM. Moreover, the Ki on CDK4/Cyclin D1 was 0.1 nM; on CDK6/Cyclin D3 it was 0.9 nM.
The like results for `CC(C)n1c([C@@H](C)O)nc2c(F)cc(-c3nc(N[C@@H]4CCOC[C@H]4O)ncc3Cl)cc21` [Example A13] were, in that order, 72.2 nM, 277 nM, 1.7 nM and 31.5 nM.
